Measured values: ChEMBL document CHEMBL1151433, “National and regional assessment of antimicrobial resistance among community-acquired respiratory tract pathogens identified in a 2005-2006 U.S. Faropenem surveillance study” (2007)
Values after ≈ are worked out from the molar mass of the structure shown.

Tests used:
Streptococcus pneumoniae [1] = test: Antibacterial activity against Streptococcus pneumoniae ATCC 49619 isolated from respiratory tract infected patients after 20 to 24 hrs by broth microdilution method; format: functional
Streptococcus pneumoniae [2] = test: Antibacterial activity against penicillin-susceptible Streptococcus pneumoniae ATCC 49619 isolated from respiratory tract infected patients after 20 to 24 hrs by broth microdilution method; format: functional
Streptococcus pneumoniae [3] = test: Antibacterial activity against penicillin-intermediate Streptococcus pneumoniae ATCC 49619 isolated from respiratory tract infected patients after 20 to 24 hrs by broth microdilution method; format: functional
Streptococcus pneumoniae [4] = test: Antibacterial activity against penicillin-resistant Streptococcus pneumoniae ATCC 49619 isolated from respiratory tract infected patients after 20 to 24 hrs by broth microdilution method; format: functional
Streptococcus pneumoniae [5] = test: Antibacterial activity against Streptococcus pneumoniae ATCC 49619 isolated from respiratory tract infected patients assessed as susceptible isolates after 20 to 24 hrs by broth microdilution method; format: functional
Streptococcus pneumoniae [6] = test: Antibacterial activity against penicillin-susceptible Streptococcus pneumoniae ATCC 49619 isolated from respiratory tract infected patients assessed as susceptible isolates after 20 to 24 hrs by broth microdilution method; format: functional
Streptococcus pneumoniae [7] = test: Antibacterial activity against penicillin-intermediate Streptococcus pneumoniae ATCC 49619 isolated from respiratory tract infected patients assessed as susceptible isolates after 20 to 24 hrs by broth microdilution method; format: functional
Streptococcus pneumoniae [8] = test: Antibacterial activity against penicillin-resistant Streptococcus pneumoniae ATCC 49619 isolated from respiratory tract infected patients assessed as susceptible isolates after 20 to 24 hrs by broth microdilution method; format: functional
Streptococcus pneumoniae [9] = test: Antibacterial activity against Streptococcus pneumoniae ATCC 49619 isolated from respiratory tract infected patients assessed as resistant isolates after 20 to 24 hrs by broth microdilution method; format: functional
Streptococcus pneumoniae [10] = test: Antibacterial activity against penicillin-susceptible Streptococcus pneumoniae ATCC 49619 isolated from respiratory tract infected patients assessed as resistant isolates after 20 to 24 hrs by broth microdilution method; format: functional
Streptococcus pneumoniae [11] = test: Antibacterial activity against penicillin-intermediate Streptococcus pneumoniae ATCC 49619 isolated from respiratory tract infected patients assessed as resistant isolates after 20 to 24 hrs by broth microdilution method; format: functional
Streptococcus pneumoniae [12] = test: Antibacterial activity against penicillin-resistant Streptococcus pneumoniae ATCC 49619 isolated from respiratory tract infected patients assessed as resistant isolates after 20 to 24 hrs by broth microdilution method; format: functional
Haemophilus influenzae [13] = test: Antibacterial activity against Haemophilus influenzae […] isolated from respiratory tract infected patients after 20 to 24 hrs by broth microdilution method; format: functional; conditions: ATCC 49247
Haemophilus influenzae [14] = test: Antibacterial activity against beta lactamase-positive Haemophilus influenzae […] isolated from respiratory tract infected patients after 20 to 24 hrs by broth microdilution method; format: functional; conditions: ATCC 49247
Haemophilus influenzae [15] = test: Antibacterial activity against beta lactamase-negative Haemophilus influenzae […] isolated from respiratory tract infected patients after 20 to 24 hrs by broth microdilution method; format: functional; conditions: ATCC 49247
Haemophilus influenzae [16] = test: Antibacterial activity against Haemophilus influenzae […] isolated from respiratory tract infected patients assessed as susceptible isolates after 20 to 24 hrs by broth microdilution method; format: functional, ATCC 49247
Haemophilus influenzae [17] = test: Antibacterial activity against beta lactamase-positive Haemophilus influenzae […] isolated from respiratory tract infected patients assessed as susceptible isolates after 20 to 24 hrs by broth microdilution method; format: functional, ATCC 49247
Haemophilus influenzae [18] = test: Antibacterial activity against beta lactamase-negative Haemophilus influenzae […] isolated from respiratory tract infected patients assessed as susceptible isolates after 20 to 24 hrs by broth microdilution method; format: functional
Haemophilus influenzae [19] = test: Antibacterial activity against Haemophilus influenzae […] isolated from respiratory tract infected patients assessed as resistant isolates after 20 to 24 hrs by broth microdilution method; format: functional, ATCC 49247
Haemophilus influenzae [20] = test: Antibacterial activity against beta lactamase-positive Haemophilus influenzae […] isolated from respiratory tract infected patients assessed as resistant isolates after 20 to 24 hrs by broth microdilution method; format: functional, ATCC 49247
Haemophilus influenzae [21] = test: Antibacterial activity against beta lactamase-negative Haemophilus influenzae […] isolated from respiratory tract infected patients assessed as resistant isolates after 20 to 24 hrs by broth microdilution method; format: functional, ATCC 49247
Moraxella catarrhalis = test: Antibacterial activity against Moraxella catarrhalis isolated from respiratory tract infected patients after 20 to 24 hrs by broth microdilution method; format: functional

With `CO/N=C(\C(=O)N[C@@H]1C(=O)N2C(C(=O)O)=C(COC(N)=O)CS[C@H]12)c1ccco1` [CEFUROXIME] the MIC50 (Streptococcus pneumoniae [1]) was no more than 0.5 µg/mL, the MIC90 (Streptococcus pneumoniae [1]) was 8 µg/mL (≈ 18.9 µM) and the MIC50 (Streptococcus pneumoniae [2]) was no more than 0.5 µg/mL. For the same compound, the MIC90 (Streptococcus pneumoniae [2]) was no more than 0.5 µg/mL, the MIC50 (Streptococcus pneumoniae [3]) was no more than 0.5 µg/mL and the MIC90 (Streptococcus pneumoniae [3]) was 4 µg/mL (≈ 9.43 µM). It also gave an MIC50 (Streptococcus pneumoniae [4]) of 8 µg/mL (≈ 18.9 µM), an MIC90 (Streptococcus pneumoniae [4]) of 16 µg/mL (≈ 37.7 µM) and an Activity (Streptococcus pneumoniae [5]) of 78.2%. For the same compound, the Activity (Streptococcus pneumoniae [6]) was 99.9%, the Activity (Streptococcus pneumoniae [7]) was 74% and the Activity (Streptococcus pneumoniae [8]) was 0%. It also gave an Activity (Streptococcus pneumoniae [9]) of 18.7%, an Activity (Streptococcus pneumoniae [10]) of 0% and an Activity (Streptococcus pneumoniae [11]) of 12.7%. The Activity (Streptococcus pneumoniae [12]) was 99.2%, the MIC50 (Haemophilus influenzae [13]) was 1 µg/mL (≈ 2.36 µM) and the MIC90 (Haemophilus influenzae [13]) was 2 µg/mL (≈ 4.71 µM). It also gave an MIC50 (Haemophilus influenzae [14]) of 1 µg/mL (≈ 2.36 µM), an MIC90 (Haemophilus influenzae [14]) of 2 µg/mL (≈ 4.71 µM) and an MIC50 (Haemophilus influenzae [15]) of 1 µg/mL (≈ 2.36 µM). The MIC90 (Haemophilus influenzae [15]) was 2 µg/mL (≈ 4.71 µM), the Activity (Haemophilus influenzae [16]) was 97.6% and the Activity (Haemophilus influenzae [17]) was 96.3%. The Activity (Haemophilus influenzae [18]) was 98%, the Activity (Haemophilus influenzae [19]) was 0.3% and the Activity (Haemophilus influenzae [20]) was 0.7%. The Activity (Haemophilus influenzae [21]) was 0.2%, the MIC50 (Moraxella catarrhalis) was 1 µg/mL (≈ 2.36 µM) and the MIC90 (Moraxella catarrhalis) was 2 µg/mL (≈ 4.71 µM).

With `CC[C@H]1OC(=O)[C@H](C)C(=O)[C@H](C)[C@@H](O[C@@H]2O[C@H](C)C[C@H](N(C)C)[C@H]2O)[C@](C)(OC)C[C@@H](C)C(=O)[C@H](C)[C@H]2N(CCCCn3cnc(-c4cccnc4)c3)C(=O)O[C@]12C` [TELITHROMYCIN] the MIC50 (Streptococcus pneumoniae [1]) was no more than 0.12 µg/mL, the MIC90 (Streptococcus pneumoniae [1]) was 0.5 µg/mL (≈ 0.616 µM) and the MIC50 (Streptococcus pneumoniae [2]) was no more than 0.12 µg/mL. It also gave an MIC90 (Streptococcus pneumoniae [2]) of no more than 0.12 µg/mL, an MIC50 (Streptococcus pneumoniae [3]) of no more than 0.12 µg/mL and an MIC90 (Streptococcus pneumoniae [3]) of 0.5 µg/mL (≈ 0.616 µM). It also gave an MIC50 (Streptococcus pneumoniae [4]) of 0.5 µg/mL (≈ 0.616 µM), an MIC90 (Streptococcus pneumoniae [4]) of 1 µg/mL (≈ 1.23 µM) and an Activity (Streptococcus pneumoniae [5]) of 99.4%. For the same compound, the Activity (Streptococcus pneumoniae [6]) was 99.8%, the Activity (Streptococcus pneumoniae [7]) was 100% and the Activity (Streptococcus pneumoniae [8]) was 97.2%. The Activity (Streptococcus pneumoniae [9]) was 0.1%, the Activity (Streptococcus pneumoniae [10]) was 0.1% and the Activity (Streptococcus pneumoniae [11]) was 0%. For the same compound, the Activity (Streptococcus pneumoniae [12]) was 0%, the MIC50 (Haemophilus influenzae [13]) was 2 µg/mL (≈ 2.46 µM) and the MIC90 (Haemophilus influenzae [13]) was 4 µg/mL (≈ 4.93 µM). For the same compound, the MIC50 (Haemophilus influenzae [14]) was 2 µg/mL (≈ 2.46 µM), the MIC90 (Haemophilus influenzae [14]) was 4 µg/mL (≈ 4.93 µM) and the MIC50 (Haemophilus influenzae [15]) was 2 µg/mL (≈ 2.46 µM). It also gave an MIC90 (Haemophilus influenzae [15]) of 4 µg/mL (≈ 4.93 µM), an Activity (Haemophilus influenzae [16]) of 96.4% and an Activity (Haemophilus influenzae [17]) of 97%. For the same compound, the Activity (Haemophilus influenzae [18]) was 96.1%, the Activity (Haemophilus influenzae [19]) was 0.7% and the Activity (Haemophilus influenzae [20]) was 0.8%. It also gave an Activity (Haemophilus influenzae [21]) of 0.7%, an MIC50 (Moraxella catarrhalis) of no more than 0.12 µg/mL and an MIC90 (Moraxella catarrhalis) of no more than 0.12 µg/mL.
